Where a name gives a salt, the structure may show the parent alone.
Assays:
αvβ1 = αvβ1 (Homo sapiens, UniProt P05556+P06756); experiment: Solid Phase Integrin αvβ1 Assay; type: binding
Method in brief: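 Compound competes for αvβ1 binding to immobilized TGFb1-LAP (1 µg/mL coat) in Mn2+ (1 mM MnCl2), 2% BSA binding buffer over 90 min at room temperature, integrin added at 0.2 µg/mL. Read-out: streptavidin-HRP/TMB; IC50 from Levenberg-Marquardt four-parameter fit.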

αvβ6 = αvβ6 (Homo sapiens, UniProt P06756+P18564); experiment: Solid Phase Integrin αvβ6 Assay; type: binding
Method in brief: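 Inhibition of αvβ6 binding to immobilized recombinant TGFb1-LAP (1 μg/mL coating), 1 h at room temperature with 1 mM MnCl2 in BSA/TBST buffer, integrin diluted to 0.2 μg/mL before addition. Streptavidin-HRP/TMB read-out; four-parameter logistic fitting gave IC50.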

αvβ1, sequence (P06756 31-992 limits assumed): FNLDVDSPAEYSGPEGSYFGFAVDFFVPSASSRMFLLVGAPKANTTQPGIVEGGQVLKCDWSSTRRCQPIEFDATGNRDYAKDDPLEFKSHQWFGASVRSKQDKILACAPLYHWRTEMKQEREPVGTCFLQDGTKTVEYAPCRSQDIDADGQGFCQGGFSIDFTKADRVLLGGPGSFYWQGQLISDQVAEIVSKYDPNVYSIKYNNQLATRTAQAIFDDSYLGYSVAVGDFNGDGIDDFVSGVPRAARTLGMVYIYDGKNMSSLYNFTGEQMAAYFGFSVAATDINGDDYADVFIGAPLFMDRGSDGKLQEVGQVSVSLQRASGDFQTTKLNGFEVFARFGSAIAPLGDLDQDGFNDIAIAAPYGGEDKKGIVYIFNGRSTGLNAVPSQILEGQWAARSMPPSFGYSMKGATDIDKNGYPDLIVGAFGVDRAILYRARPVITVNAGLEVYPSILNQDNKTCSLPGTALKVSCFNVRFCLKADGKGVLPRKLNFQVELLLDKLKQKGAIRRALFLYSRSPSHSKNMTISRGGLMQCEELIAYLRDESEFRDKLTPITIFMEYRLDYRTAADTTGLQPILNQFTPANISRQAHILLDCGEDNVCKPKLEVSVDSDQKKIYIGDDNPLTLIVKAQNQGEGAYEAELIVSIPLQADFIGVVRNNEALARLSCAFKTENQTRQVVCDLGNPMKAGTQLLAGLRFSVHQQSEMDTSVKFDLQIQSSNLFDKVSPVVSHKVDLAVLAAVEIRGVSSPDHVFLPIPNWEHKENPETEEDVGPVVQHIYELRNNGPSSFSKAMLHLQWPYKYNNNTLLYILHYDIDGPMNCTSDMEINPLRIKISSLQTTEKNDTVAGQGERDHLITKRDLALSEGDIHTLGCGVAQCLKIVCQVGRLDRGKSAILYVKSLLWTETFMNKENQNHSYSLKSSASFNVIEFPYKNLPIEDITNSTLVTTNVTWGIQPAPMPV
αvβ1, sequence (P05556 21-728 limits assumed): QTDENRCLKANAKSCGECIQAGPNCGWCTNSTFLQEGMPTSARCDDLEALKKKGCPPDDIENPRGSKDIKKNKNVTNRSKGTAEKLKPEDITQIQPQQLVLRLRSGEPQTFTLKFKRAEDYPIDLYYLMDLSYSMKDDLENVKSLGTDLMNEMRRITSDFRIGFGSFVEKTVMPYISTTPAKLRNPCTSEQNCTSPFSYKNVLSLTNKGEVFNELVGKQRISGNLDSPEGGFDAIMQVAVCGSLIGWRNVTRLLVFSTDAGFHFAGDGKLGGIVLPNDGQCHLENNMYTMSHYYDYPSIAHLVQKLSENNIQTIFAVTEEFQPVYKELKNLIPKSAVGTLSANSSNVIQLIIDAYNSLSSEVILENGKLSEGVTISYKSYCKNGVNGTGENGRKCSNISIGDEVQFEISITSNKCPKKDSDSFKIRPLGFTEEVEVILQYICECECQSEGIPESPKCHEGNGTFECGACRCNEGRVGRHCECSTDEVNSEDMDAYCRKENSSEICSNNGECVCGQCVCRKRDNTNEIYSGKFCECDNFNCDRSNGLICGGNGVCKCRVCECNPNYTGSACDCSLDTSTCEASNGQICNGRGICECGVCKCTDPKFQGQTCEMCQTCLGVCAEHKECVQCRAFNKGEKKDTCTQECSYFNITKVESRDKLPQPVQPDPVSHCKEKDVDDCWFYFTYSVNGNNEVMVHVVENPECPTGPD
αvβ6, sequence (P06756 31-992 limits assumed): as the sequence (P06756 31-992 limits assumed) above
αvβ6, sequence (P18564 22-707 limits assumed): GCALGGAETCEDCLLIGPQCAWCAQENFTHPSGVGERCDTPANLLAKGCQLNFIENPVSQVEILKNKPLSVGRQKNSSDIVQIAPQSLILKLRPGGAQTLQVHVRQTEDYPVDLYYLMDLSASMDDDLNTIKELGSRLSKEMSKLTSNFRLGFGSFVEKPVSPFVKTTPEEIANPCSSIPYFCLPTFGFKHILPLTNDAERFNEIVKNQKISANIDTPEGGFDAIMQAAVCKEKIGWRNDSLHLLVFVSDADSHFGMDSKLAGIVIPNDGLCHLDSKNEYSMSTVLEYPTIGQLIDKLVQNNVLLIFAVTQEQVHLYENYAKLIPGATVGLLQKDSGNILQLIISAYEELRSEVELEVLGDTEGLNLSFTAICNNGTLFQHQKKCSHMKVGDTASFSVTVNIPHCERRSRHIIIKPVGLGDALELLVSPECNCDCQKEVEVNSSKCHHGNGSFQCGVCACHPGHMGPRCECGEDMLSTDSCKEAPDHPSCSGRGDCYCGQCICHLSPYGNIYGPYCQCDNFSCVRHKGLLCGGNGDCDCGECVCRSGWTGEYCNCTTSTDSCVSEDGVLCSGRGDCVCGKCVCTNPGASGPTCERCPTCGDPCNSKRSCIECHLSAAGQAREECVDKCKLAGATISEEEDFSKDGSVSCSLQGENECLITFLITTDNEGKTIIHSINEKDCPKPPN

O=C(NC[C@H](Nc1ncnc2ccsc12)C(=O)O)[C@@H]1CCCN(CCCc2ccc3c(n2)NCCC3)C1 [Compound 276, (2S)-3-[[(3R)-1-[3-(5,6,7,8-tetrahydro-1,8-naphthyridin-2-yl)propyl]piperidine-3-carbonyl]amino]-2-(thieno[3,2-d]pyrimidin-4-ylamino)propanoic acid]
IC50 (αvβ1): < 100 nM
IC50 (αvβ6): < 100 nM

Cc1csc2c(N[C@@H](CNC(=O)[C@@H]3CCCN(CCCc4ccc5c(n4)NCCC5)C3)C(=O)O)ncnc12 [Compound 277, (2S)-2-[(7-methylthieno[3,2-d]pyrimidin-4-yl)amino]-3-[[(3R)-1-[3-(5,6,7,8-tetrahydro-1,8-naphthyridin-2-yl)propyl]piperidine-3-carbonyl]amino]propanoic acid]
IC50 (αvβ1): < 100 nM
IC50 (αvβ6): < 100 nM

O=C(NC[C@H](Nc1ncnc2cc(F)c(F)cc12)C(=O)O)[C@@H]1CCCN(CCCc2ccc3c(n2)NCCC3)C1 [Compound 278, (2S)-2-[(6,7-difluoroquinazolin-4-yl)amino]-3-[[(3R)-1-[3-(5,6,7,8-tetrahydro-1,8-naphthyridin-2-yl)propyl]piperidine-3-carbonyl]amino]propanoic acid]
IC50 (αvβ1): < 100 nM
IC50 (αvβ6): < 100 nM

O=C(NC[C@H](Nc1ncnc2sccc12)C(=O)O)[C@@H]1CCCN(CCCc2ccc3c(n2)NCCC3)C1 [Compound 279, (S)-3-((R)-1-(3-(5,6,7,8-tetrahydro-1,8-naphthyridin-2-yl)propyl)piperidine-3-carboxamido)-2-(thieno[2,3-d]pyrimidin-4-ylamino)propanoic acid]
IC50 (αvβ1): < 100 nM
IC50 (αvβ6): < 100 nM

Cc1csc2ncnc(N[C@@H](CNC(=O)[C@@H]3CCCN(CCCc4ccc5c(n4)NCCC5)C3)C(=O)O)c12 [Compound 280, (S)-2-((5-methylthieno[2,3-d]pyrimidin-4-yl)amino)-3-((R)-1-(3-(5,6,7,8-tetrahydro-1,8-naphthyridin-2-yl)propyl)piperidine-3-carboxamido)propanoic acid]
IC50 (αvβ1): < 100 nM
IC50 (αvβ6): < 100 nM

O=C(NC[C@H](Nc1nc2ccccc2s1)C(=O)O)[C@@H]1CCCN(CCCc2ccc3c(n2)NCCC3)C1 [Compound 281, (2S)-2-(1,3-benzothiazol-2-ylamino)-3-[[(3R)-1-[3-(5,6,7,8-tetrahydro-1,8-naphthyridin-2-yl)propyl]piperidine-3-carbonyl]amino]propanoic acid]
IC50 (αvβ1): < 100 nM
IC50 (αvβ6): < 100 nM

O=C(NC[C@H](Nc1ncnc2cc(C(F)(F)F)ccc12)C(=O)O)[C@@H]1CCCN(CCCc2ccc3c(n2)NCCC3)C1 [Compound 282, (S)-3-((R)-1-(3-(5,6,7,8-tetrahydro-1,8-naphthyridin-2-yl)propyl)piperidine-3-carboxamido)-2-((7-(trifluoromethyl)quinazolin-4-yl)amino)propanoic acid hydrochloride]
IC50 (αvβ1): < 100 nM
IC50 (αvβ6): < 100 nM

O=C(NC[C@H](Nc1cc(C(F)(F)F)ncn1)C(=O)O)[C@@H]1CCCN(CCCc2ccc3c(n2)NCCC3)C1 [Compound 283, (2S)-3-[[(3R)-1-[3-(5,6,7,8-tetrahydro-1,8-naphthyridin-2-yl)propyl]piperidine-3-carbonyl]amino]-2-[[6-(trifluoromethyl)pyrimidin-4-yl]amino]propanoic acid]
IC50 (αvβ1): < 100 nM
IC50 (αvβ6): < 100 nM

O=C(NC1CCCCC1)N[C@@H](CNC(=O)[C@@H]1CCCN(CCCc2ccc3c(n2)NCCC3)C1)C(=O)O [Compound 284, (S)-2-(3-cyclohexylureido)-3-((R)-1-(3-(5,6,7,8-tetrahydro-1,8-naphthyridin-2-yl)propyl)piperidine-3-carboxamido)propanoic acid]
IC50 (αvβ1): < 100 nM
IC50 (αvβ6): < 100 nM

O=C(N[C@@H](CNC(=O)[C@@H]1CCCN(CCCc2ccc3c(n2)NCCC3)C1)C(=O)O)C1CC2CCC1CC2 (stereo partly drawn) [Compound 285, (2S)-2-(bicyclo[22.2]octane-2-carboxamido)-3-((R)-1-(3-(5,6,7,8-tetrahydro-1,8-naphthyridin-2-yl)propyl)piperidine-3-carboxamido)propanoic acid]
IC50 (αvβ1): < 100 nM
IC50 (αvβ6): < 100 nM
